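Tested at 5 concentrations; 48 h exposure; 96-well plates; endpoints linearly interpolated, else capped at highest concentration. At the TGI there is no net growth.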
Legend:
Assay in all cases: growth of human tumour cells (NCI), 48 h
[1] = test system: COLO 205 colon
[2] = test system: SNB-75 CNS
[3] = test system: RXF 393 renal
[4] = test system: PC-3 prostate
[5] = test system: OVCAR-4 ovarian
[6] = test system: MDA-MB-231 breast
[7] = test system: IGROV1 ovarian
[8] = test system: UO-31 renal
[9] = test system: UACC-257 melanoma
[10] = test system: OVCAR-3 ovarian
[11] = test system: 786-0 renal
[12] = test system: HT29 colon
[13] = test system: HS 578T breast
[14] = test system: CCRF-CEM leukemia
[15] = test system: HCT-116 colon
[16] = test system: NCI-H460 lung
[17] = test system: HOP-62 NSCLC
[18] = test system: HOP-92 NSCLC
[19] = test system: EKVX NSCLC
[20] = test system: MDA-N
[21] = test system: K-562 leukemia
[22] = test system: OVCAR-8 ovarian
[23] = test system: SW-620 colon
[24] = test system: A498 renal
[25] = test system: NCI-H522 lung
[26] = test system: DU-145 prostate
[27] = test system: MOLT-4 leukemia
[28] = test system: MDA-MB-435
[29] = test system: SN12C renal
[30] = test system: SNB-19 CNS
[31] = test system: NCI-H226 lung
[32] = test system: SK-MEL-5 melanoma
[33] = test system: CAKI-1 renal
[34] = test system: U251 CNS
[35] = test system: TK-10 renal
[36] = test system: A549 NSCLC
[37] = test system: M14 melanoma
[38] = test system: NCI-H23 lung
[39] = test system: KM12 colon
[40] = test system: SR leukemia
[41] = test system: HCT-15 colon
[42] = test system: SF-268 CNS
[43] = test system: MALME-3M melanoma
[44] = test system: HCC-2998 colon
[45] = test system: T-47D breast
[46] = test system: HL-60(TB) leukemia
[47] = test system: SK-OV-3 ovarian
[48] = test system: OVCAR-5 ovarian
[49] = test system: SF-539 CNS
[50] = test system: ACHN renal
[51] = test system: BT-549 breast
[52] = test system: NCI/ADR-RES ovarian
[53] = test system: UACC-62 melanoma
[54] = test system: SK-MEL-28 melanoma
[55] = test system: LOX IMVI melanoma
[56] = test system: SF-295 CNS
[57] = test system: SK-MEL-2 melanoma
[58] = test system: MCF7 breast
[59] = test system: RPMI-8226 leukemia

`Cc1cc(=O)c2ccccc2n1CCCCCCCCCCn1c(C)cc(=O)c2ccccc21` was tested, and the TGI [1] was 51.9 µM, the TGI [2] was 87 µM and the TGI [3] was 72.3 µM. The TGI [4] was greater than 100 µM, the TGI [5] was 44.1 µM and the TGI [6] was greater than 100 µM. The TGI [7] was 43.8 µM, the TGI [8] was 25.6 µM and the TGI [9] was 25.2 µM. For the same compound, the TGI [10] was greater than 100 µM, the TGI [11] was 30.4 µM and the TGI [12] was 29.9 µM. It also gave a TGI [13] of 47.7 µM, a TGI [14] of 26.7 µM and a TGI [15] of 27.8 µM. It also gave a TGI [16] of 87.4 µM, a TGI [17] greater than 100 µM and a TGI [18] of 38.5 µM. For the same compound, the TGI [19] was 33.9 µM, the TGI [20] was 43.1 µM and the TGI [21] was 17.9 µM. The TGI [22] was 46.7 µM, the TGI [23] was 56 µM and the TGI [24] was 28.9 µM. For the same compound, the TGI [25] was 32.9 µM, the TGI [26] was 41.9 µM and the TGI [27] was 21.7 µM. For the same compound, the TGI [28] was 29.7 µM, the TGI [29] was 43.3 µM and the TGI [30] was greater than 100 µM. It also gave a TGI [31] of 46.1 µM, a TGI [32] of 6.27 µM and a TGI [33] of 36.1 µM. It also gave a TGI [34] of 29 µM, a TGI [35] of 30.2 µM and a TGI [36] of 56.2 µM. It also gave a TGI [37] greater than 100 µM, a TGI [38] of 30.9 µM and a TGI [39] of 29.4 µM. The TGI [40] was 34 µM, the TGI [41] was greater than 100 µM and the TGI [42] was 89.4 µM. It also gave a TGI [43] of 34.4 µM, a TGI [44] of 24.1 µM and a TGI [45] greater than 100 µM. It also gave a TGI [46] of 15.1 µM, a TGI [47] of 35.3 µM and a TGI [48] greater than 100 µM. The TGI [49] was 44.3 µM, the TGI [50] was greater than 100 µM and the TGI [51] was 23 µM. For the same compound, the TGI [52] was greater than 100 µM, the TGI [53] was 34.9 µM and the TGI [54] was 35.1 µM. For the same compound, the TGI [55] was 17.8 µM.

`Nc1ncnc2nn(C3OC(CO)C(O)C3O)nc12` (stereo not drawn) showed a TGI [1] of 15.8 µM, a TGI [2] of 54.1 µM and a TGI [56] greater than 89.3 µM. The TGI [57] was 17.5 µM, the TGI [3] was greater than 23.1 µM and the TGI [4] was greater than 67.6 µM. For the same compound, the TGI [5] was greater than 100 µM, the TGI [6] was greater than 25.2 µM and the TGI [7] was 39.1 µM. For the same compound, the TGI [8] was 49 µM, the TGI [9] was greater than 87.1 µM and the TGI [10] was greater than 41.1 µM. For the same compound, the TGI [58] was greater than 62.3 µM, the TGI [11] was greater than 100 µM and the TGI [12] was greater than 100 µM. For the same compound, the TGI [13] was greater than 100 µM, the TGI [14] was greater than 67 µM and the TGI [15] was 39.1 µM. The TGI [16] was 25.3 µM, the TGI [17] was 46.5 µM and the TGI [18] was greater than 100 µM. For the same compound, the TGI [19] was greater than 100 µM, the TGI [20] was greater than 82.6 µM and the TGI [21] was greater than 100 µM. It also gave a TGI [22] greater than 100 µM, a TGI [23] greater than 100 µM and a TGI [24] greater than 59.6 µM. It also gave a TGI [25] greater than 100 µM, a TGI [26] greater than 45.4 µM and a TGI [27] greater than 66.2 µM. It also gave a TGI [28] greater than 90 µM, a TGI [29] greater than 68.5 µM and a TGI [30] of 99.1 µM. The TGI [31] was 40.5 µM, the TGI [32] was 39.7 µM and the TGI [33] was greater than 100 µM. For the same compound, the TGI [34] was greater than 81.6 µM, the TGI [35] was greater than 35.4 µM and the TGI [36] was greater than 64 µM. The TGI [37] was greater than 62.8 µM, the TGI [59] was 26.5 µM and the TGI [38] was 67.9 µM. It also gave a TGI [39] greater than 100 µM, a TGI [40] of 16 µM and a TGI [41] of 45.3 µM. It also gave a TGI [42] greater than 100 µM, a TGI [43] greater than 100 µM and a TGI [44] of 32.8 µM. It also gave a TGI [45] greater than 44.5 µM, a TGI [46] of 23.6 µM and a TGI [47] of 16.6 µM. The TGI [48] was greater than 95.3 µM, the TGI [49] was 58.5 µM and the TGI [50] was 49.3 µM. The TGI [51] was greater than 100 µM, the TGI [52] was greater than 86.8 µM and the TGI [53] was greater than 100 µM. It also gave a TGI [54] greater than 100 µM and a TGI [55] of 23 µM.

Work on `C=CCn1c(-c2ccc(Cl)cc2Cl)csc1=Nc1c(C)n(C)n(-c2ccccc2)c1=O` yielded a TGI [1] of 25.6 µM, a TGI [2] of 24.5 µM and a TGI [56] of 21.2 µM. It also gave a TGI [57] of 29.2 µM, a TGI [3] of 32.1 µM and a TGI [4] of 20.6 µM. It also gave a TGI [5] of 28.3 µM, a TGI [6] of 30 µM and a TGI [7] of 31.5 µM. For the same compound, the TGI [8] was 24.3 µM, the TGI [9] was 19.2 µM and the TGI [10] was 23.7 µM. For the same compound, the TGI [58] was 25.4 µM, the TGI [11] was 26.7 µM and the TGI [12] was 25.3 µM. The TGI [13] was 44.7 µM, the TGI [14] was 38.1 µM and the TGI [15] was 20.4 µM. For the same compound, the TGI [16] was 27.1 µM, the TGI [17] was 29.7 µM and the TGI [18] was 41.1 µM. The TGI [19] was 13.5 µM, the TGI [20] was 22.4 µM and the TGI [21] was 8.38 µM. For the same compound, the TGI [22] was 21.7 µM, the TGI [23] was 32.8 µM and the TGI [24] was 25.4 µM. The TGI [25] was 29.6 µM, the TGI [26] was 27.3 µM and the TGI [27] was 18.6 µM. It also gave a TGI [28] of 25.2 µM, a TGI [29] of 27.5 µM and a TGI [30] of 24.7 µM. For the same compound, the TGI [31] was 33 µM, the TGI [32] was 13.1 µM and the TGI [33] was 31.7 µM. It also gave a TGI [34] of 25.1 µM, a TGI [35] of 25.7 µM and a TGI [36] of 23.1 µM. The TGI [37] was 23.8 µM, the TGI [59] was greater than 46.3 µM and the TGI [38] was 23.4 µM. The TGI [39] was 29.3 µM, the TGI [40] was 21.9 µM and the TGI [41] was 30 µM. For the same compound, the TGI [42] was 33.4 µM, the TGI [43] was 31.4 µM and the TGI [44] was 29.1 µM. It also gave a TGI [45] of 16.6 µM, a TGI [46] of 25.8 µM and a TGI [47] of 19.4 µM. For the same compound, the TGI [48] was 31.1 µM, the TGI [49] was 30.4 µM and the TGI [50] was 27.7 µM. The TGI [51] was 26.4 µM, the TGI [52] was 34.2 µM and the TGI [53] was 22.5 µM. The TGI [54] was 26.7 µM and the TGI [55] was 23.9 µM.

Source: PubChem BioAssay (NCI)
